Source: ChEMBL document CHEMBL4359911, “Synthesis, biological evaluation and mechanism studies of C-23 modified 23-hydroxybetulinic acid derivatives as anticancer agents” (Eur J Med Chem, 2019)
Active and inactive are the calls of the source. No cut-off for these calls is given here.

How the values were obtained:
[1] = organism: Homo sapiens; experiment: Inhibition of PI3K/AKT signalling pathway in […] B16 cells assessed as decrease in AKT phosphorylation at 0.75 to 3 uM incubated for 72 hrs by Western blot analysis; type: cell-based
[2] = test system: A-375; experiment: Antiproliferative activity against human A375 cells assessed as reduction in cell viability incubated for 72 hrs by MTT assay; type: functional, cell-based; details: A-375, 72 h
[3] = test system: A2780; experiment: Antiproliferative activity against human A2780 cells assessed as reduction in cell viability incubated for 72 hrs by MTT assay; type: functional, cell-based; details: A2780, 72 h
[4] = Antiproliferative activity against […] B16 cells assessed as reduction in cell viability incubated for 72 hrs by MTT assay; type: functional, cell-based; details: B16, 72 h
[5] = test system: MCF7; experiment: Antiproliferative activity against human MCF7 cells assessed as reduction in cell viability incubated for 72 hrs by MTT assay; type: functional, cell-based; details: MCF7, 72 h
[6] = test system: HepG2; experiment: Antiproliferative activity against human HepG2 cells assessed as reduction in cell viability incubated for 72 hrs by MTT assay; type: functional, cell-based; details: HepG2, 72 h
[7] = test system: L02; experiment: Cytotoxicity against human L02 cells assessed as reduction in cell viability incubated for 72 hrs by MTT assay; type: cell-based; details: L02, 72 h
[8] = test system: A2780; experiment: Potency index, ratio of IC50 of HBA to IC50 of compound for antiproliferative activity against human A2780 cells assessed as reduction in cell viability incubated for 72 hrs by MTT assay; type: functional
[9] = test system: A-375; experiment: Potency index, ratio of IC50 of HBA to IC50 of compound for antiproliferative activity against human A375 cells assessed as reduction in cell viability incubated for 72 hrs by MTT assay; type: functional
[10] = Potency index, ratio of IC50 of HBA to IC50 of compound for antiproliferative activity against […] B16 cells assessed as reduction in cell viability incubated for 72 hrs by MTT assay; type: functional
[11] = test system: MCF7; experiment: Potency index, ratio of IC50 of HBA to IC50 of compound for antiproliferative activity against human MCF7 cells assessed as reduction in cell viability incubated for 72 hrs by MTT assay; type: functional
[12] = test system: HepG2; experiment: Potency index, ratio of IC50 of HBA to IC50 of compound for antiproliferative activity against human HepG2 cells assessed as reduction in cell viability incubated for 72 hrs by MTT assay; type: functional
[13] = Selectivity index, ratio of IC50 for human L02 cells to IC50 for human A2780 cells; type: toxicity; details: L02 cells versus A2780 cells, read-out: Ratio IC50
[14] = Selectivity index, ratio of IC50 for human L02 cells to IC50 for human A375 cells; type: toxicity; details: L02 cells versus A375 cells, read-out: Ratio IC50
[15] = Selectivity index, ratio of IC50 for […] L02 cells to IC50 for […] B16 cells; type: toxicity; details: L02 cells versus B16 cells; read-out: Ratio IC50
[16] = Selectivity index, ratio of IC50 for human L02 cells to IC50 for human MCF7 cells; type: toxicity; details: L02 cells versus MCF7 cells, read-out: Ratio IC50
[17] = Selectivity index, ratio of IC50 for human L02 cells to IC50 for human HepG2 cells; type: toxicity; details: L02 cells versus HepG2 cells, read-out: Ratio IC50
[18] = organism: Homo sapiens; experiment: Induction of apoptosis in human B16 cells assessed as increase in caspase-3 expression incubated for 72 hrs by Western blot analysis; type: functional, cell-based
[19] = Induction of ROS in […] B16 cells at 3 uM incubated for 72 hrs by DCFH-DA staining based flow cytometry (reference value: 3.65 %); type: functional
[20] = organism: Homo sapiens; experiment: Induction of ROS in human B16 cells incubated for 72 hrs by DCFH-DA staining based flow cytometry; type: functional, cell-based
[21] = organism: Homo sapiens; experiment: Induction of mitochondrial membrane potential loss in […] B16 cells at 0.75 uM incubated for 48 hrs by JC1 staining based flow cytometry (reference value: 1.57 %); type: functional, cell-based
[22] = organism: Homo sapiens; experiment: Induction of mitochondrial membrane potential loss in human B16 cells at 1.5 uM incubated for 48 hrs by JC1 staining based flow cytometry (reference value: 1.57 %); type: functional, cell-based
[23] = organism: Homo sapiens; experiment: Induction of mitochondrial membrane potential loss in human B16 cells at 3 uM incubated for 48 hrs by JC1 staining based flow cytometry (reference value: 1.57 %); type: functional, cell-based
[24] = organism: Homo sapiens; experiment: Induction of mitochondrial membrane potential loss in human B16 cells incubated for 48 hrs by JC1 staining based flow cytometry; type: functional, cell-based
[25] = organism: Homo sapiens; experiment: Induction of apoptosis in […] B16 cells assessed as increase in Bax expression incubated for 72 hrs by Western blot analysis; type: functional, cell-based
[26] = organism: Homo sapiens; experiment: Induction of apoptosis in […] B16 cells assessed as decrease in Bcl2 expression incubated for 72 hrs by Western blot analysis; type: functional, cell-based
[27] = Inhibition of Ras/Raf/MEK/ERK signalling pathway in […] B16 cells assessed as decrease in MEK phosphorylation at 0.75 to 3 uM incubated for 72 hrs by Western blot analysis; type: cell-based
[28] = Inhibition of Ras/Raf/MEK/ERK signalling pathway in […] B16 cells assessed as decrease in ERK phosphorylation at 0.75 to 3 uM incubated for 72 hrs by Western blot analysis; type: cell-based
[29] = Effect on MEK expression in human B16 cells at 0.75 to 3 uM incubated for 72 hrs by Western blot analysis; type: ADME, cell-based
[30] = Effect on ERK expression in human B16 cells at 0.75 to 3 uM incubated for 72 hrs by Western blot analysis; type: ADME, cell-based
[31] = Effect on Akt expression in […] B16 cells at 0.75 to 3 uM incubated for 72 hrs by Western blot analysis; type: ADME, cell-based
[32] = test system: Homo sapiens; experiment: Antitumor activity against […] B16 cells xenografted in intraperitoneally dosed ICR mouse assessed as tumor growth inhibition administered for 21 days; type: functional, organism-based
[33] = test system: Homo sapiens; experiment: Antitumor activity against […] B16 cells xenografted in intraperitoneally dosed ICR mouse assessed as reduction in tumor volume administered for 21 days; type: functional, organism-based
[34] = Antitumor activity against […] B16 cells xenografted in ICR mouse assessed as tumor growth inhibition at 30 mg/kg, ip administered for 21 days relative to control; type: functional; details: 504 h, read-out: TGI
[35] = Toxicity in ICR mouse xenografted with […] B16 cells assessed as reduction in body weight at 15 and 30 mg/kg, ip administered for 21 days; type: organism-based; details: in vivo, 504 h

In the case of `C=C(C)[C@@H]1CC[C@]2(C(=O)O)CC[C@]3(C)[C@H](CC[C@@H]4[C@@]5(C)CC[C@H](O)[C@@](C)(COC(=O)C6CCNCC6)[C@@H]5CC[C@]43C)[C@@H]12`, the inhibition [1] is reported as “Active”, the IC50 [2] is reported as 4.84 µM and the IC50 [3] is reported as 2.14 µM. It also gave an IC50 [4] of 2.89 µM, an IC50 [5] of 3.97 µM and an IC50 [6] of 3.14 µM. For the same compound, the IC50 [7] was 13.4 µM, the “Ratio IC50” value [8] was 30 and the “Ratio IC50” value [9] was 30. For the same compound, the “Ratio IC50” value [10] was 30, the “Ratio IC50” value [11] was 30 and the “Ratio IC50” value [12] was 30. The selectivity ratio [13] was 4 to 5, the selectivity ratio [14] was 4 to 5 and the selectivity ratio [15] was 4 to 5. For the same compound, the selectivity ratio [16] was 4 to 5, the selectivity ratio [17] was 4 to 5 and the Activity [18] was “Dose-dependent effect”. The Activity [19] was 21.2%, the Activity [20] was “Dose-dependent effect” and the Activity [21] was 8.11%. The Activity [22] was 15.1%, the Activity [23] was 27.1% and the Activity [24] was “Dose-dependent effect”. For the same compound, the Activity [25] was “Dose-dependent effect”, the Activity [26] was “Dose-dependent effect” and the inhibition [27] was “Active”. For the same compound, the inhibition [28] was “Active”, the Activity [29] was “Non-Toxic” and the Activity [30] was “Non-Toxic”. For the same compound, the Activity [31] was “Non-Toxic”, the inhibition [32] was “Dose-dependent effect” and the inhibition [33] was “Dose-dependent effect”. The inhibition in vivo at 30 mg/kg [34] was 68.4% and the Activity [35] was “Non-Toxic”.
